# Results published in US6893846B2, “Primers for use in detecting beta-lactamases” (priority 1998, dated 2005).
# Read-outs that look alike come from different tables or passages of the source.
# Tests used:
# [1] = tested on: E. coli C600 transconjugant; details: disk diffusion, Tc = transconjugate E. coli C600
# [2] = molecular target: single beta-lactamase in K. pneumoniae cell extracts (Escherichia coli, UniProt P62593, E102K/R162S); assay: Spectrophotometric hydrolysis assay on crude beta-lactamase extracts; details: K. pneumoniae Pit 16 extract, beta-lactamase pI 5.6; 100 μM substrate
# [3] = molecular target: single beta-lactamase in K. pneumoniae cell extracts (Klebsiella pneumoniae, UniProt P0AD64, E235K/G234S); assay: as above; details: K. pneumoniae Pit 82 extract, beta-lactamase pI 8.2; 100 μM substrate
# [4] = molecular target: single beta-lactamase in K. pneumoniae cell extracts (Klebsiella pneumoniae, UniProt P0AD64, G234S); assay: as above; details: K. pneumoniae Pit 100 extract, beta-lactamase pI 7.6; 100 μM substrate
# K. pneumoniae 225 [5] = assay: NCCLS disk diffusion assay; format: cell-based, Klebsiella pneumoniae; details: disk diffusion, Kleb 225
# P. mirabilis = assay: Agar dilution MIC, South African isolates; format: cell-based, Proteus mirabilis; details: 4 strains, tzp with tazobactam 4 μg/ml
# Excerpt: During a period of three months in 1993, […] strains of Klebsiella pneumoniae (13 blood, 5 burn, 7 wound, 11 tracheal isolates), 4 strains of Proteus mirabilis (all wound isolates) and 4 strains of Escherichia coli (1 blood, 1 burn, 2 wound isolates) were collected from patients at the following medical centers in South Africa: Tygerberg Hospital near Cape Town, King Edward VIII Hospital in Durban, Chris Hani Baragwanath Hospital in Soweto and Pretoria Academic Hospital in Pretoria. The strains were provided in response to a request for all strains of Enterobacteriaceae, lacking inducible beta-lactamases, that were intermediate or resistant to cefotaxime or ceftazidime. […] Therefore accurate prevalence data were not obtained.
# Antibiotic susceptibility was determined by standard disk diffusion (NCCLS Standard M2-T4, 1994) and agar dilution (NCCLS Standard M7-T2, 1994) procedures. Standard powders of antimicrobial agents were kindly provided by the following companies: piperacillin and tazobactam (Lederle Laboratories, Wayne, N.J.); cefoxitin and imipenem, (Merck, Rathway, N.J.); cefotaxime, (Hoechst-Roussel Pharmaceuticals Inc., Somerville, N.J.); ceftazidime, (Glaxo Group Research Ltd., Greenford, England); aztreonam and cefepime, (Bristol-Myers Squibb, Princeton, N.J.). Disks for agar diffusion were obtained from Becton Dickinson Microbiology Systems (Cockeysville, Md.). For quality control purposes, the following quality control strains were run simultaneously with the test organisms E. coli ATCC 25922, Pseudomonas aeruginosa ATCC 27853, E. coli ATCC 35218, and Staphylococcus aureus ATCC 29213. Throughout this study, results were interpreted using NCCLS criteria for disk diffusion (NCCLS Standard M2-T4, 1994) and broth dilution (NCCLS Standard M7-T2, 1994).
# [6] = tested on: E. coli C600N transconjugants; assay: Susceptibility of transconjugants; format: cell-based, Escherichia coli; details: E. coli C600N transconjugants of E. aerogenes 187, 200, 220, 184
# Protocol: Antibiotic susceptibilities were determined by standard disk-diffusion (NCCLS Standard M2-A6) and agar-dilution (NCCLS Standard M7-A4) procedures. Disks were obtained from Becton Dickinson Microbiology Systems (Cockeysville, Md.). Disk-diffusion susceptibilities to the following antibiotics were determined, ampicillin; amoxicillin clavulanic acid; aztreonam; cefazolin; cefoxitin; cefuroxime; cefotaxime; ceftriaxone; ceftazidime; cefepime; imipenem; gentamicin; trimethoprim/sulfamethoxazole and ciprofloxacin. […] The following quality control strains were run simultaneously with the test organisms Escherichia coli ATCC 25922, Pseudomonas aeruginosa ATCC 27853, and E. coli ATCC 35218. Throughout this study, results were interpreted using NCCLS criteria for disk diffusion (NCCLS M2-A6) and broth dilution (NCCLS M7-A4).
# […]. The filter paper mating technique with overnight incubation at 37° C. were performed as described previously (Philippon et al., Antimicrob. Agents Chemother., 33:1131-1136 (1989)). Transconjugants were selected on LB (Luria Bertani) agar [Difco (Detroit, Mich.)] plates containing 12 μg per ml nalidixic acid and 20 μg per ml ampicillin.
# K. pneumoniae = assay: Agar dilution MIC, South African isolates; format: cell-based, Klebsiella pneumoniae; details: tzp with tazobactam 4 μg/ml
# Excerpt: (§1) The strains were provided in response to a request for all strains of Enterobacteriaceae, lacking inducible beta-lactamases, that were intermediate or resistant to cefotaxime or ceftazidime. […]
# [7] = molecular target: single beta-lactamase in E. coli cell extracts (Escherichia coli, UniProt P62593, E102K/R162S); assay: Spectrophotometric hydrolysis assay on crude beta-lactamase extracts; details: E. coli Pit 64 extract, beta-lactamase pI 5.6; 100 μM substrate
# K. pneumoniae 225 [8] = details: test drug disk around amoxicillin-clavulanate disk
# E. aerogenes [9] = format: cell-based, Enterobacter aerogenes
# Protocol: Antibiotic susceptibilities were determined by standard disk-diffusion (NCCLS Standard M2-A6) and agar-dilution (NCCLS Standard M7-A4) procedures. Disks were obtained from Becton Dickinson Microbiology Systems (Cockeysville, Md.). […] Throughout this study, results were interpreted using NCCLS criteria for disk diffusion (NCCLS M2-A6) and broth dilution (NCCLS M7-A4).
# K. pneumoniae 225 [10] = assay: Three-dimensional test (enzymatic inactivation of antibiotics); details: beta-lactamase-mediated hydrolysis by K. pneumoniae 225, lawn E. coli ATCC 25922
# K. pneumoniae 225 [11] = assay: NCCLS microdilution susceptibility test; format: cell-based, Klebsiella pneumoniae; details: Klebsiella pneumoniae, 225
# [12] = tested on: E. coli HB101 transformant (17 kb plasmid); details: disk diffusion, Tr (17 kb) = transformant E. coli HB101
# E. aerogenes [13] = assay: Vitek automated susceptibility system; format: cell-based, Enterobacter aerogenes; details: the 31 selected E. aerogenes strains
# Excerpt: Among all E. aerogenes recovered from clinical specimens during an eighteen month period (September 1993 to March 1995), thirty-one E. aerogenes strains showing a resistance phenotype different from that observed with derepressed mutants normally encountered at the Hunter Holmes McGuire Medical Center, Richmond, Va. were selected for this study. The strains selected were intermediate to ceftriaxone but resistant to ceftazidime when tested with the Vitek automated susceptibility system (bioMerieux Vitek, St. Louis, Mo.). Derepressed mutants previously isolated from this center were usually resistant to both ceftriaxone and ceftazidime.
# E. coli = assay: Agar dilution MIC, South African isolates; format: cell-based, Escherichia coli; details: tzp with tazobactam 4 μg/ml
# Excerpt: as §1
# [14] = molecular target: single beta-lactamase in P. mirabilis cell extracts (Escherichia coli, UniProt P62593, E102K/R162S); assay: Spectrophotometric hydrolysis assay on crude beta-lactamase extracts; details: P. mirabilis Pit 85 extract, beta-lactamase pI 5.6; 100 μM substrate
# E. aerogenes [15] = assay: Double-disk potentiation test; format: cell-based, Enterobacter aerogenes; details: all the E. aerogenes strains selected; potentiation by clavulanic acid
# Excerpt: This test described by Jarlier et al., Rev. Infect. Dis.
smiles,measurement,setting,value
CC(C)(O/N=C(\C(=O)N[C@@H]1C(=O)N2C(C(=O)[O-])=C(C[n+]3ccccc3)CS[C@H]12)c1csc(N)n1)C(=O)O [ceftazidime],Zone Size,[1],7 mm
same,Hydrolysis,[2],3 nmol of substrate hydrolyzed/m
same,Hydrolysis,[3],0.2 nmol of substrate hydrolyzed/m
same,Hydrolysis,[4],0.1 nmol of substrate hydrolyzed/m
same,Zone Size,K. pneumoniae 225 [5],8 mm
same,MIC range,P. mirabilis,16 to 64 µg/mL
same,susceptibility after transfer of plasmids encoding SHV beta-lactamase genes,[6],decreased susceptibility
same,MIC range,"K. pneumoniae; resistance phenotype Kpn1, 8 strains",>128 µg/mL
same,MIC range,"K. pneumoniae; resistance phenotype Kpn2, 28 strains",4 to 128 µg/mL
same,MIC range,"K. pneumoniae; resistance phenotype Kpn3 (K. pneumoniae Pit 68), 1 strain, listed as caz",4 µg/mL
same,Hydrolysis,[7],2 nmol of substrate hydrolyzed/m
same,clavulanate double-disk potentiation test,K. pneumoniae 225 [8],positive
same,MIC range,E. aerogenes [9]; 1 E. aerogenes strain with Bush group 1 and group 2be (SHV-3) enzymes,4 µg/mL
same,MIC range,E. aerogenes [9]; 1 E. aerogenes strain with Bush group 1 and group 2be (SHV-5) enzymes,32 µg/mL
same,MIC range,E. aerogenes [9]; 29 E. aerogenes strains with Bush group 1 and group 2be (SHV-4) enzymes,8 to 32 µg/mL
same,susceptibility by MIC,E. aerogenes [9]; all E. aerogenes strains,decreased susceptibility
same,three dimensional test,K. pneumoniae 225 [10],positive
same,MIC,K. pneumoniae 225 [11],> 64 µg/mL
same,Zone Size,[12],33 mm
same,Vitek susceptibility result,E. aerogenes [13],resistant
same,MIC range,"E. coli; resistance phenotype Ec1, 3 strains",>128 µg/mL
same,MIC range,"E. coli; resistance phenotype Ec2, 1 strain",4 µg/mL
same,Hydrolysis,[14],1 nmol of substrate hydrolyzed/m
CO/N=C(\C(=O)N[C@@H]1C(=O)N2C(C(=O)O)=C(CSc3nc(=O)c(=O)[nH]n3C)CS[C@H]12)c1csc(N)n1 [ceftriaxone],Zone Size,[1],12 mm
same,Zone Size,K. pneumoniae 225 [5],13 mm
same,double disk test,E. aerogenes [15],positive
same,clavulanate double-disk potentiation test,K. pneumoniae 225 [8],positive
same,three dimensional test,K. pneumoniae 225 [10],positive
same,MIC,K. pneumoniae 225 [11],16 µg/mL
same,Zone Size,[12],32 mm
same,Vitek susceptibility result,E. aerogenes [13],intermediate
